These results are taken from paper PMC9112332, “Structure-Based Design of α-Substituted Mercaptoacetamides as Inhibitors of the Virulence Factor LasB from Pseudomonas aeruginosa” (ACS Infectious Diseases, 2022).

Each structure is given as a SMILES string. Like-named read-outs stand apart in the source and are kept apart here.

For one assay, the target named is ColH-PD (Hathewaya histolytica, UniProt Q46085). The assay is described as follows: biochemical. Details: species or system C. histolyticum. The conditions noted are these: for inhibition at 1 µM: read-out: % inh. of ColH-PD @1µM.
A further assay has as its target LasB (Pseudomonas aeruginosa, UniProt Q02RJ6). The assay is described as follows: LasB inhibition assay (FRET-based, in vitro).

Sequence of LasB (Q02RJ6 198-498): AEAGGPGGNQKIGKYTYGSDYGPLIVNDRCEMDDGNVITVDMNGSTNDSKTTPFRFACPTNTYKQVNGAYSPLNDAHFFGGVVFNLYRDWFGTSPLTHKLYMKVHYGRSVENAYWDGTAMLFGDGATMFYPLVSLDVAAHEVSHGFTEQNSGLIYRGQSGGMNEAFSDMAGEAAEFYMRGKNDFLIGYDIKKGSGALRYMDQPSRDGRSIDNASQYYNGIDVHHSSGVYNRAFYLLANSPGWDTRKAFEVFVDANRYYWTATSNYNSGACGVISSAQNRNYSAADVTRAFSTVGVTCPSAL
Sequence of ColH-PD (Q46085 331-721 limits assumed): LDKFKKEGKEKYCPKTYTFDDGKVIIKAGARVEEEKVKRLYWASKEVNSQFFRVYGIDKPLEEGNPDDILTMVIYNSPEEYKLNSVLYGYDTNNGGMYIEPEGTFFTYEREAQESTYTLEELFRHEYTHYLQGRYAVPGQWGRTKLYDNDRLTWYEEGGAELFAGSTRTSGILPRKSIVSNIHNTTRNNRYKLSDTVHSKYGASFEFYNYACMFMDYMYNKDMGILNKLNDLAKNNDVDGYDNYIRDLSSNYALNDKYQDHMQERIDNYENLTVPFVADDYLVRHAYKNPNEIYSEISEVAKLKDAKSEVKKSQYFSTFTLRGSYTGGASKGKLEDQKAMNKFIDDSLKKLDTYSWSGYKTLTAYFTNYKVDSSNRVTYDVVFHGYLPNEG
Protocol for LasB: LasB Inhibition Assay. The purification of LasB from P. aeruginosa P14 supernatant as well
as the subsequent performance of the FRET-based in vitro inhibition assay was performed as
described previously.1 All samples were run in duplicate for each condition, and experiments
were performed independently at least twice.

Broadly, the IC50 is the midpoint of a concentration-inhibition curve. `O=C(Nc1ccc([N+](=O)[O-])cc1)C(S)Cc1ccccc1` (centres unmarked) [Compound 11]: the inhibition at 1 µM at ColH-PD was 88 ± 2%. At LasB, half-maximal inhibition (IC50) was put at 1000 ± 100 nM.

`O=C(Nc1nc2ccccc2[nH]1)C(S)Cc1ccccc1` (centres unmarked) [Compound 26]: the “inhibitory activity against LasB (in words)” value against LasB (compared to compound 23) was “dramatic decrease in the inhibitory activity”.

As to `O=C(Nc1ccccc1)C(S)Cc1ccc(Cl)cc1` (centres unmarked) [Compound 17], on LasB, half-maximal inhibition (IC50) was put at 1100 ± 100 nM. Take `O=C(Nc1nccs1)C(S)Cc1ccccc1` (centres unmarked) [Compound 18]: on ColH-PD, the inhibition at 1 µM came to 34 ± 3%. This molecule had an IC50 against LasB of 1600 ± 100 nM.

What is called Ki is the equilibrium dissociation constant of an inhibitor or competing ligand from its target. High values mean a looser hold on the target, low ones a stronger hold on the target. Take `O=C(Nc1ccccc1)C(S)Cc1ccccc1` (centres unmarked) [Compound 5]: the Ki on ColH-PD was determined as 400 ± 40 nM. Moreover, the concentration for half-maximal inhibition (IC50) on LasB (read-out: IC50 against LasB, mean and SD of at least two independent experiments) was determined as 1200 ± 100 nM. For the molecule `O=C(Nc1ccccc1)C(S)Cc1ccc(O)c([N+](=O)[O-])c1` (centres unmarked) [Compound 16], on ColH-PD, the inhibition at 1 µM stood at 74 ± 5%. Moreover, the IC50 on LasB is 2500 ± 200 nM. As for `O=C(Nc1ccccn1)C(S)Cc1ccccc1` (centres unmarked) [Compound 21], on LasB, 3100 ± 200 nM corresponded to half-maximal inhibition (IC50).

On LasB, `O=C(Nc1nc2ccc(Cl)cc2s1)C(S)Cc1ccccc1` (centres unmarked) [Compound 25] returned an IC50 of 2400 ± 200 nM.

Consider `Cc1ccc(CC(S)C(=O)Nc2ccccc2)cc1` (centres unmarked) [Compound 14], for which, at ColH-PD, the inhibition at 1 µM was found to be 69 ± 3%. This molecule also registered a concentration for half-maximal inhibition (IC50) at LasB of 2800 ± 300 nM.

For the molecule `O=C(Nc1cccnc1)C(S)Cc1ccccc1` (centres unmarked) [Compound 20], half-maximal inhibition on LasB (IC50) was put at 1200 ± 40 nM. Same read-out and setting: to `COC(=O)c1ccsc1NC(=O)C(S)Cc1ccccc1` (centres unmarked) [Compound 19] belongs 8000 ± 1100 nM. As to `O=C(Nc1ccccc1)C(S)Cc1ccc(O)cc1` (centres unmarked) [Compound 15], at ColH-PD, the inhibition at 1 µM amounted to 63 ± 2%. The same molecule returned an IC50 against LasB of 7400 ± 600 nM. For the same molecule, the “decrease in activity compared to compound 3” value at LasB (LasB IC50 ratio vs compound 3) is 15 fold. On to `O=C(Nc1ccncc1)C(S)Cc1ccccc1` (centres unmarked) [Compound 22], for which the IC50 against LasB came out at 4900 ± 500 nM.
